Data taken from article PMC10299089, “Heterologous expression of genes from a cyanobacterial endosymbiont highlights substrate exchanges with its diatom host” (PNAS Nexus, 2023).

How the values were obtained:
[1] = molecular target: T1, RintHH_11820 (NatB), SBP of N-I transporter (Richelia intracellularis, UniProt M1WZ73); experiment: intrinsic Trp fluorescence quenching; format: binding; settings: excitation 280 nm, emission ~340 nm; ligand ~116 µM
T1 construct: mature protein, signal peptide removed, N-terminal His tag, E. coli, nickel column
T1 sequence (M1WZ73 24-438): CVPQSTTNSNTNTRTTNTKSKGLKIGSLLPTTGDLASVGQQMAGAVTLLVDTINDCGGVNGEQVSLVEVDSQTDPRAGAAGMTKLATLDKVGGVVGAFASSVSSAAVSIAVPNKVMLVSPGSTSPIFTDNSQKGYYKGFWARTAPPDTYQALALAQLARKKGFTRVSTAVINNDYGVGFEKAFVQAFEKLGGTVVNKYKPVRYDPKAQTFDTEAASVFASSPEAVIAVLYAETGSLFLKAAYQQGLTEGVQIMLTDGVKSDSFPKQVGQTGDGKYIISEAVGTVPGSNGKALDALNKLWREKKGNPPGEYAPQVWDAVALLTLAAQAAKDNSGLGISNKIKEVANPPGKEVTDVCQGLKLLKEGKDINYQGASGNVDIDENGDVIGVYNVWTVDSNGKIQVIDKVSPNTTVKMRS

[2] = molecular target: T2, RintHH_12770 (NatF), SBP of N-II transporter (Richelia intracellularis, UniProt M1WZB0); experiment: intrinsic Trp fluorescence quenching; format: binding; settings: excitation 280 nm, emission ~340 nm; ligand ~7 µM
T2 construct: mature protein, signal peptide removed, N-terminal His tag, E. coli, nickel column
T2 sequence (M1WZB0 22-348 limits assumed): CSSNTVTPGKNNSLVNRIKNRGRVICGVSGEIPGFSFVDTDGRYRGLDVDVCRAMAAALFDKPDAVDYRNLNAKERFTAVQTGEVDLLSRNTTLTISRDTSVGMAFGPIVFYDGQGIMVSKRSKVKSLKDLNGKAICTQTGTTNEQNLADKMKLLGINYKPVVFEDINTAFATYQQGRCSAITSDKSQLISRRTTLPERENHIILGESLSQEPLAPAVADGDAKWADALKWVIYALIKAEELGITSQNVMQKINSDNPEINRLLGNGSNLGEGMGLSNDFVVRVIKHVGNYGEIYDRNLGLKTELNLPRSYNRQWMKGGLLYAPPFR

[3] = molecular target: T3, RintHH_17430 (GlsR), periplasmic SBP (Richelia intracellularis, UniProt M1X141); experiment: intrinsic Trp fluorescence quenching; format: binding; settings: 0.02 mM protein, excitation 280 nm, emission ~340 nm
T3 construct: mature protein, signal peptidase II signal peptide removed, N-terminal Cys fused to Strep-tag II; pET28b(+), E. coli, StrepTrap
T3 sequence (M1X141 41-442): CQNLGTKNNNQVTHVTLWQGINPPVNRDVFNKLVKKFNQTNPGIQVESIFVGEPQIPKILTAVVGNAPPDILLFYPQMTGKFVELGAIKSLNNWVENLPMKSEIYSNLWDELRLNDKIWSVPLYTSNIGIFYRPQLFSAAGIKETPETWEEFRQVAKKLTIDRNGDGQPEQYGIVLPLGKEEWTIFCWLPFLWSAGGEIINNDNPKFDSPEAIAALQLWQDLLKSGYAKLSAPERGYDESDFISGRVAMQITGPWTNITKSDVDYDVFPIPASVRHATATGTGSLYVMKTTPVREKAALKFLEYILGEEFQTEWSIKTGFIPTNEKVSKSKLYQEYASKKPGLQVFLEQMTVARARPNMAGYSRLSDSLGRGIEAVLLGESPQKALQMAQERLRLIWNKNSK

[4] = substrate: OC[C@H]1O[C@@](CO)(O[C@H]2O[C@H](CO)[C@@H](O)[C@H](O)[C@H]2O)[C@@H](O)[C@@H]1O; experiment: glucose production by HPLC (Dionex), E. coli cell-free extract; format: biochemical, Richelia intracellularis; settings: pH 7, 30 °C, 120 mM potassium phosphate, crude extract

Molecule | % quenching [1] | also measured
NCC(=O)O [Gly] | substantial quenching was produced by the neutral amino acids (L-Pro, L-Ala, L-Phe, Gly, and L-Leu) | 
CC(C)C[C@H](N)C(=O)O [L-Leu] | substantial quenching was produced by the neutral amino acids (L-Pro, L-Ala, L-Phe, Gly, and L-Leu) | 
N[C@@H](CCC(=O)O)C(=O)O [L-Glu] |  | % quenching [2]: substantial quenching was only seen with L-Glu
OC[C@H]1O[C@@](CO)(O[C@H]2O[C@H](CO)[C@@H](O)[C@H](O)[C@H]2O)[C@@H](O)[C@@H]1O [sucrose] |  | % quenching at 1 μM [3]: ~ 22.5%
O=C(O)[C@@H]1CCCN1 [L-Pro] | substantial quenching was produced by the neutral amino acids (L-Pro, L-Ala, L-Phe, Gly, and L-Leu) | 
C[C@H](N)C(=O)O [L-Ala] | substantial quenching was produced by the neutral amino acids (L-Pro, L-Ala, L-Phe, Gly, and L-Leu) | 
RintHH_3860 (InvB), neutral invertase (Richelia intracellularis HH01) (protein, synthetic gene in pET28b(+), expressed in E. coli; crude cell-free extract (purification unsuccessful)) MQPHKVILKDVEKDAWDTLEKTIIYYQGNPIGTVAALDSTANTLNYDQCFVRDFVVSALLFLIKGRTEIVRNFLKQTLKLQPKKKQLGTYKPGRGLMPASFKVTFNNGQEELEADFGENAIARVTPVDSSLWWIVLLRAYVVATKDYSLAYQDDFQQGIRLILDLCLATRFDMYPTLLVPDGACMIDRRLGIHGHPLEIQSLYYAALRAARELLICQGNEELVFAIDNRLPVLAAHIRKHYWIDLHRLNDIYRYRGEEYGKDAVNQFNIYVDSIPYSELDRWLPKGGGYLAGNVGPSQMDTRFFTLGNLMAVIIDLTTQEQSQAIMTLIEQRWDDLVGDMPMKITFPALENEEYKYVTGCDPKNIPWSYHNAGNWPVLMWMLAAACVKTNHRELMQRALTIAQERLKNDEWPEYYDGKQGRLIGRQSRKYQTWTIVGFLLAKEILAQPGSLSLISFDPFITKQVSQACELKFDYFDS |  | Km [4]: 25.7 mM
